Test results from PubChem BioAssay AID256 (DTP/NCI, 2004).
Where “and” joins values, the source holds several entries; their conditions need not be identical. Identical values can stand only once. Toxic doses and inconclusive results are not listed.

Test system: CD2F1 mice, L1210 leukemia ip, survival T/C
Assay: NCI In Vivo Anticancer Drug Screen. Data for tumor model L1210 Leukemia (intraperitoneal) in CD2F1 (CDF1) mice
Conditions: higher = longer survival
In short: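 In this screen, transplantable tumors were grown in mice given either the compound or its vehicle. Results were expressed as the treated measurement relative to the control measurement.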

[1] = endpoint: mean survival time, dose: 100.0 mg/kg/injection, schedule: Q01DX001 (ip), vehicle: saline with Tween-80
[2] = endpoint: mean survival time, dose: 200.0 mg/kg/injection, schedule: Q01DX001 (ip), vehicle: saline with Tween-80
[3] = endpoint: mean survival time, dose: 400.0 mg/kg/injection, schedule: Q01DX001 (ip), vehicle: saline with Tween-80
[4] = endpoint: mean survival time, dose: 50.0 mg/kg/injection, schedule: Q01DX009 (ip), vehicle: saline with Tween-80
[5] = endpoint: mean survival time, dose: 100.0 mg/kg/injection, schedule: Q01DX009 (ip), vehicle: saline with Tween-80
[6] = endpoint: mean survival time, dose: 100.0 mg/kg/injection, schedule: Q04DX003 (ip), vehicle: saline with Tween-80
[7] = endpoint: mean survival time, dose: 200.0 mg/kg/injection, schedule: Q04DX003 (ip), vehicle: saline with Tween-80
[8] = endpoint: mean survival time, dose: 400.0 mg/kg/injection, schedule: Q04DX003 (ip), vehicle: saline with Tween-80
[9] = endpoint: mean survival time, dose: 100.0 mg/kg/injection, schedule: Q04DX002 (ip), vehicle: saline with Tween-80
[10] = endpoint: mean survival time, dose: 200.0 mg/kg/injection, schedule: Q04DX002 (ip), vehicle: saline with Tween-80
[11] = endpoint: mean survival time, dose: 400.0 mg/kg/injection, schedule: Q04DX002 (ip), vehicle: saline with Tween-80
[12] = endpoint: mean survival time, dose: 100.0 mg/kg/injection, schedule: Q01DX001 (ip), vehicle: Klucel (hydroxypropylcellulose) (HPC)
[13] = endpoint: mean survival time, dose: 200.0 mg/kg/injection, schedule: Q01DX001 (ip), vehicle: Klucel (hydroxypropylcellulose) (HPC)

With `CC(=O)OC1CSC1` the T/C (endpoint: mean survival time, dose: 30.0 mg/kg/injection, schedule: Q01DX001 (ip), vehicle: saline with Tween-80) was 106 % of control, the T/C (endpoint: mean survival time, dose: 60.0 mg/kg/injection, schedule: Q01DX001 (ip), vehicle: saline with Tween-80) was 109 % of control and the T/C (endpoint: mean survival time, dose: 120.0 mg/kg/injection, schedule: Q01DX001 (ip), vehicle: saline with Tween-80) was 101 % of control.
For `CCOC(=O)Nc1cccnc1`, the T/C (endpoint: mean survival time, dose: 75.0 mg/kg/injection, schedule: Q01DX001 (ip), vehicle: saline with Tween-80) was 104 % of control, the T/C (endpoint: mean survival time, dose: 150.0 mg/kg/injection, schedule: Q01DX001 (ip), vehicle: saline with Tween-80) was 98 % of control and the T/C (endpoint: mean survival time, dose: 300.0 mg/kg/injection, schedule: Q01DX001 (ip), vehicle: saline with Tween-80) was 106 % of control.
In the case of `CN(C)N=Nc1ccccc1`, the T/C (endpoint: mean survival time, dose: 37.5 mg/kg/injection, schedule: Q01DX009 (ip), vehicle: Klucel (hydroxypropylcellulose) (HPC)) is reported as 158 % of control and the T/C (endpoint: mean survival time, dose: 75.0 mg/kg/injection, schedule: Q01DX009 (ip), vehicle: Klucel (hydroxypropylcellulose) (HPC)) is reported as 106 % of control.
`CC(C)(C)C1=Nc2ccccc2[Si]1(C)C` was tested, and the T/C [1] was 98 % of control, the T/C [2] was 102 % of control and the T/C [3] was 95 % of control.
In the case of `CC12CC1(C)C(=O)OC2=O` (centres undefined), the T/C [4] is reported as 96 % of control, the T/C [5] is reported as 95 % of control and the T/C (endpoint: mean survival time, dose: 200.0 mg/kg/injection, schedule: Q01DX009 (ip), vehicle: saline with Tween-80) is reported as 96 % of control.
`COc1ccc(-n2cnc3c(cnn3C3OC(CO)C(O)C3O)c2=O)cc1` (centres undefined) was tested, and the T/C (endpoint: median survival time, dose: 12.5 mg/kg/injection, schedule: Q01DX005 (ip), vehicle: saline) was 105 % of control, the T/C (endpoint: median survival time, dose: 25.0 mg/kg/injection, schedule: Q01DX005 (ip), vehicle: saline) was 102 % of control and the T/C (endpoint: median survival time, dose: 50.0 mg/kg/injection, schedule: Q01DX005 (ip), vehicle: saline) was 102 % of control. The T/C (endpoint: median survival time, dose: 100.0 mg/kg/injection, schedule: Q01DX005 (ip), vehicle: saline) was 105 % of control and the T/C (endpoint: median survival time, dose: 200.0 mg/kg/injection, schedule: Q01DX005 (ip), vehicle: saline) was 106 % of control.
In the case of `N#C/C(=C\c1c(O)ccc2ccccc12)c1ccc([N+](=O)[O-])cc1`, the T/C (endpoint: mean survival time, dose: 66.0 mg/kg/injection, schedule: Q01DX009 (ip), vehicle: saline with Tween-80) is reported as 88 % of control, the T/C [5] is reported as 91 % of control and 92 % of control and the T/C [6] is reported as 91 % of control. The T/C (endpoint: mean survival time, dose: 150.0 mg/kg/injection, schedule: Q01DX009 (ip), vehicle: saline with Tween-80) was 100 % of control, the T/C [7] was 94 % of control and the T/C [8] was 91 % of control.
`CN(C)C(=O)Nc1cccc2ccccc12` was tested, and the T/C [9] was 94 % of control, the T/C [10] was 105 % of control and the T/C [11] was 90 % of control.
`O=C(COc1cccc(Cl)c1)Nc1cccc(NC(=O)c2ccc(S(=O)(=O)F)cc2)c1` was tested, and the T/C [1] was 91 % of control, the T/C [2] was 90 % of control and the T/C [3] was 101 % of control.
With `c1ccc(CCN2CCC(CCc3c[nH]c4ccccc34)CC2)cc1` the T/C [4] was 107 % of control, the T/C (endpoint: mean survival time, dose: 50.0 mg/kg/injection, schedule: Q04DX003 (ip), vehicle: saline with Tween-80) was 110 % of control and the T/C [6] was 104 % of control. For the same molecule, the T/C [7] was 92 % of control.
With `O=C(O)c1ccc(C(=O)O)c(C(=O)O)c1.[NH-]C1CCCCC1[NH-].[Pd+2]` the T/C (endpoint: mean survival time, dose: 9.36 mg/kg/injection, schedule: Q04DX003 (ip), vehicle: sodium bicarbonate) was 98 % of control, the T/C (endpoint: mean survival time, dose: 18.75 mg/kg/injection, schedule: Q04DX003 (ip), vehicle: sodium bicarbonate) was 101 % of control and the T/C (endpoint: mean survival time, dose: 75.0 mg/kg/injection, schedule: Q04DX003 (ip), vehicle: sodium bicarbonate) was 101 % of control. The T/C (endpoint: mean survival time, dose: 150.0 mg/kg/injection, schedule: Q04DX003 (ip), vehicle: sodium bicarbonate) was 101 % of control.
In the case of `CC1(C)CC(NC(=O)CSc2ncnc3nc[nH]c23)CC(C)(C)N1O`, the T/C (endpoint: mean survival time, dose: 12.5 mg/kg/injection, schedule: Q01DX005 (ip), vehicle: saline) is reported as 106 % of control, the T/C (endpoint: mean survival time, dose: 25.0 mg/kg/injection, schedule: Q01DX005 (ip), vehicle: saline) is reported as 98 % of control and the T/C (endpoint: mean survival time, dose: 50.0 mg/kg/injection, schedule: Q01DX005 (ip), vehicle: saline) is reported as 98 % of control. For the same molecule, the T/C (endpoint: mean survival time, dose: 100.0 mg/kg/injection, schedule: Q01DX005 (ip), vehicle: saline) was 98 % of control and the T/C (endpoint: mean survival time, dose: 200.0 mg/kg/injection, schedule: Q01DX005 (ip), vehicle: saline) was 98 % of control.
For `CC(=O)C1CCC2C3=CC=C4CC(OC(=O)c5ccccc5)CCC4(C)C3CCC12C` (centres undefined), the T/C [6] was 101 % of control, the T/C [7] was 98 % of control and the T/C [8] was 102 % of control.
For `COc1cc(NC2CCCCC2O)c2nc(-c3ccc(Cl)cc3)ccc2c1` (centres undefined), the T/C (endpoint: mean survival time, dose: 50.0 mg/kg/injection, schedule: Q04DX003 (ip), vehicle: saline) was 110 % of control, the T/C (endpoint: mean survival time, dose: 100.0 mg/kg/injection, schedule: Q04DX003 (ip), vehicle: saline) was 96 % of control and the T/C (endpoint: mean survival time, dose: 200.0 mg/kg/injection, schedule: Q04DX003 (ip), vehicle: saline) was 107 % of control. The T/C (endpoint: mean survival time, dose: 400.0 mg/kg/injection, schedule: Q04DX003 (ip), vehicle: saline) was 112 % of control.
`O=[N+]([O-])C(CO)(CO)CO` was tested, and the T/C (endpoint: mean survival time, dose: 100.0 mg/kg/injection, schedule: Q01DX009 (ip), vehicle: saline) was 98 % of control, the T/C (endpoint: mean survival time, dose: 200.0 mg/kg/injection, schedule: Q01DX009 (ip), vehicle: saline) was 96 % of control and the T/C (endpoint: mean survival time, dose: 400.0 mg/kg/injection, schedule: Q01DX009 (ip), vehicle: saline) was 104 % of control.
`CN(C)N(Cc1ccccc1)/N=N/c1nc[nH]c1C(N)=O` was tested, and the T/C (endpoint: mean survival time, dose: 50.0 mg/kg/injection, schedule: Q01DX001 (ip), vehicle: Klucel (hydroxypropylcellulose) (HPC)) was 107 % of control, the T/C (endpoint: mean survival time, dose: 50.0 mg/kg/injection, schedule: Q01DX009 (ip), vehicle: Klucel (hydroxypropylcellulose) (HPC)) was 105 % of control and the T/C [12] was 98 % of control. The T/C (endpoint: mean survival time, dose: 100.0 mg/kg/injection, schedule: Q01DX009 (ip), vehicle: Klucel (hydroxypropylcellulose) (HPC)) was 96 % of control, the T/C [13] was 90 % of control and the T/C (endpoint: mean survival time, dose: 200.0 mg/kg/injection, schedule: Q01DX009 (ip), vehicle: Klucel (hydroxypropylcellulose) (HPC)) was 107 % of control.
With `CN(C)CC(C)(C)C(=O)c1ccccc1` the T/C (endpoint: mean survival time, dose: 100.0 mg/kg/injection, schedule: Q04DX002 (ip), vehicle: saline) was 93 % of control.
With `[I][Pt][I].c1ccc([PH+](c2ccccc2)c2ccccc2)cc1.c1ccc([PH+](c2ccccc2)c2ccccc2)cc1` the T/C (endpoint: mean survival time, dose: 6.25 mg/kg/injection, schedule: Q04DX002 (ip), vehicle: saline with Tween-80) was 104 % of control, the T/C (endpoint: mean survival time, dose: 12.5 mg/kg/injection, schedule: Q04DX002 (ip), vehicle: saline with Tween-80) was 93 % of control and the T/C (endpoint: mean survival time, dose: 25.0 mg/kg/injection, schedule: Q04DX002 (ip), vehicle: saline with Tween-80) was 96 % of control. For the same molecule, the T/C [9] was 87 % of control and the T/C [11] was 91 % of control.
`NC(=S)N/N=C\c1nccc2c(C(F)(F)C(F)(F)C(F)(F)F)cccc12` was tested, and the T/C [9] was 93 % of control, the T/C [10] was 96 % of control and the T/C [11] was 96 % of control.
In the case of `CCCc1cc(=O)n(CCCc2ccccc2)c(=O)n1CCCc1ccccc1`, the T/C [12] is reported as 103 % of control, the T/C [13] is reported as 97 % of control and the T/C (endpoint: mean survival time, dose: 400.0 mg/kg/injection, schedule: Q01DX001 (ip), vehicle: Klucel (hydroxypropylcellulose) (HPC)) is reported as 90 % of control.
In the case of `O=C1c2ccccc2C(C(O)(C(F)(F)F)C(F)(F)F)c2ccccc21`, the T/C (endpoint: mean survival time, dose: 12.5 mg/kg/injection, schedule: Q01DX009 (ip), vehicle: saline with Tween-80) is reported as 100 % of control, the T/C (endpoint: mean survival time, dose: 25.0 mg/kg/injection, schedule: Q01DX009 (ip), vehicle: saline with Tween-80) is reported as 98 % of control and the T/C [4] is reported as 96 % of control.
`CC=C(CCCC)CCCC` was tested, and the T/C (endpoint: mean survival time, dose: 100.0 mg/kg/injection, schedule: Q01DX001 (ip), vehicle: saline) was 107 % of control, the T/C (endpoint: mean survival time, dose: 200.0 mg/kg/injection, schedule: Q01DX001 (ip), vehicle: saline) was 102 % of control and the T/C (endpoint: mean survival time, dose: 400.0 mg/kg/injection, schedule: Q01DX001 (ip), vehicle: saline) was 103 % of control.
For `COc1cc2c(cc1O)CCCCC2O` (centres undefined), the T/C (endpoint: mean survival time, dose: 50.0 mg/kg/injection, schedule: Q01DX009 (ip), vehicle: other) was 107 % of control, the T/C (endpoint: mean survival time, dose: 100.0 mg/kg/injection, schedule: Q01DX009 (ip), vehicle: other) was 100 % of control and the T/C (endpoint: mean survival time, dose: 200.0 mg/kg/injection, schedule: Q01DX009 (ip), vehicle: other) was 92 % of control.
For `CC(=O)Nc1ccc2c(c1)CCCC2`, the T/C [9] was 101 % of control, the T/C [10] was 104 % of control and the T/C [11] was 104 % of control.
